Assay results as given in patent US10160771B2, “Hepatitis C virus inhibitors and uses thereof in preparation of drugs” (priority 2014, dated 2018).

Columns and labels:
[1] = tested on: HCV genotype 1a (HCV-1a) replicon cells; test: HCV genotype 1a replicon luciferase assay (EC50); type: cell-based, hepatitis C virus genotype 1a (H77 clone); settings: 3 days, luciferase (Bright-Glo)
Procedure, shortened: (§1)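 H77-derived 1a (K1691R, K2040R, S2204I) or Con1-derived 1b (E1202G, T1280I, K1846T) luciferase replicon cells, 8000/well, exposed 3 days at 37° C. to 6-point 5-fold dilutions (top 100, 10 or 1 nM; 0.5% DMSO), in duplicate. Bright-Glo luminescence read; EC50 from nonlinear fit of % inhibition.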

[2] = tested on: HCV genotype 1b (HCV-1b) replicon cells; test: HCV genotype 1b replicon luciferase assay (EC50); type: cell-based, hepatitis C virus genotype 1b (Con1 clone); settings: 3 days, luciferase (Bright-Glo)
Procedure, shortened: as §1

[3] = Cell Titer-fluor cell activity assay in HCV-1b replicon cells (CC50); type: cell-based
Procedure, shortened: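 Con1 genotype 1b replicon cells (E1202G, T1280I, K1846T adaptive mutations), 8000 cells/well, exposed to 6-point 5-fold dilutions from 100, 10 or 1 nM top concentration in 0.5% DMSO, duplicate wells, 3 days at 37 °C. Viability read by Cell Titer-fluor (Ex 405/Em 515 nm) after 30 min; CC50 from nonlinear fit of inhibition %.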

SMILES | EC50 ([1]; Hepatitis C virus, 72 h) [nM] | EC50 ([2]; Hepatitis C virus, 72 h) [nM] | CC50 at 3 days [3] [nM] | EC50 [2] [nM] | EC50 [1] [nM]
COC(=O)N[C@H](C(=O)N1CCC[C@H]1c1[nH]c(-c2ccc(-c3ccc(-c4cnc([C@@H]5CCCN5C(=O)[C@@H](NC(=O)OC)C(C)(C)C)[nH]4)cc3)cc2)c2c1CCC2)C(C)C [AG_093] | 10 to 100 | 0.001 to 0.1 | > 1 |  | 
COC(=O)N[C@H](C(=O)N1CCC[C@H]1c1ncc(-c2ccc(-c3ccc(-c4cnc(C5C6CCC(C6)[C@@H]5C(=O)NCc5ccc(OC)nc5)[nH]4)cc3)cc2)[nH]1)[C@@H](C)OC (stereo partly drawn) [AA_223_B] | 10 to 100 | 0.101 to 1 | > 1 |  | 
COC(=O)N[C@H](C(=O)N1CCC[C@H]1c1ncc(-c2ccc(-c3ccc(-c4cnc(C5C6CCC(C6)[C@@H]5C(=O)N(NC(=O)OC)C(C)C)[nH]4)cc3)cc2)[nH]1)C(C)C (stereo partly drawn) [AA_121_A] | 10 to 100 | 1 to 10 | > 10 |  | 
COC(=O)N[C@H](C(=O)N1CCC[C@H]1c1ncc(-c2ccc(-c3ccc(-c4cnc([C@H]5C6CCC(C6)[C@@H]5C(=O)NCc5cccc(N)c5)[nH]4)cc3)cc2)[nH]1)C(C)C (stereo partly drawn) [AA_199_A] | 1 to 10 | 0.001 to 0.1 | > 1 |  | 
COC(=O)NC(C(=O)N1CCCC1c1[nH]c(-c2ccc(-c3ccc(-c4cnc([C@@H]5CCCN5C(=O)[C@@H](NC(=O)OC)C(C)C)[nH]4)cc3)cc2)c2c1CCC2)C1CCOC1 (single isomer, unassigned) [AG_025_A] | 10 to 100 |  | > 10 | 0.001 to 0.1 | 
COC(=O)N[C@H](C(=O)N1CCC[C@H]1c1ncc(-c2ccc(-c3ccc(-c4cnc([C@@H]5C6CCC(C6)[C@H]5C(=O)NCc5cccnc5C(F)(F)F)[nH]4)cc3)cc2)[nH]1)C(C)C (stereo partly drawn) [AA_216_B] | 10 to 100 | 0.001 to 0.1 | > 1 |  | 
COC(=O)N[C@H](C(=O)N1CCC[C@H]1c1ncc(-c2ccc(-c3ccc(-c4[nH]c([C@@H]5CCCN5C(=O)[C@@H](NC(=O)OC)[C@@H](C)OC)c5c4COC5)cc3)cc2)[nH]1)[C@@H](C)O [AG_105] | 0.101 to 1 | 0.001 to 0.1 | > 1 |  | 
COC(=O)N[C@H](C(=O)N1CCC[C@H]1c1ncc(-c2ccc(-c3ccc(-c4cnc(C5C6CCC(C6)[C@@H]5C(=O)NCc5cnccn5)[nH]4)cc3)cc2)[nH]1)[C@@H](C)OC (stereo partly drawn) [AA_268_A] | 0.101 to 1 | 0.001 to 0.1 | > 1 |  | 
COC(=O)NC(C(=O)N1CCCC1c1ccc(-c2ccc3c(c2)C(C)(C)c2cc(-c4cnc([C@@H]5CCCN5C(=O)[C@@H](NC(=O)OC)C(C)C)[nH]4)ccc2-3)[nH]1)[C@@H](C)OC (stereo partly drawn) [AG_085] | 10 to 100 | 0.001 to 0.1 | > 1 |  | 
COC[C@H](NC(=O)OC)C(=O)N1CCC[C@H]1c1ncc(-c2ccc(-c3ccc(-c4ccc([C@@H]5CCCN5C(=O)[C@@H](NC(=O)OC)C(C)C)[nH]4)cc3)cc2)[nH]1 [AG_100] | 0.101 to 1 | 0.001 to 0.1 | > 1 |  | 
COC(=O)N[C@H](C(=O)N1CCC[C@H]1c1ncc(-c2ccc(-c3ccc(-c4cc(Cl)c([C@@H]5CCCN5C(=O)[C@@H](NC(=O)OC)[C@@H](C)OC)[nH]4)cc3)cc2)[nH]1)[C@@H](C)OC [AG_094] | 0.101 to 1 | 0.001 to 0.1 | > 1 |  | 
COC(=O)N[C@H](C(=O)N1CC2(C[C@H]1c1ncc(-c3ccc(-c4ccc(-c5cnc(C6C7CCC(C7)[C@H]6C(=O)NCc6cccnc6)[nH]5)cc4)cc3)[nH]1)OCCO2)C(C)C (stereo partly drawn) [AA_192_B] | 1 to 10 | 0.001 to 0.1 | > 1 |  | 
COC(=O)N[C@H](C(=O)N1CCC[C@H]1c1ncc(-c2ccc(-c3ccc(-c4cnc([C@@H]5CCCC[C@H]5C(=O)NCc5cccnc5)[nH]4)cc3)cc2)[nH]1)C(C)C [AA_150_B] | 0.101 to 1 | 0.001 to 0.1 | > 10 |  | 
COC[C@H](NC(=O)OC)C(=O)N1CCC[C@H]1c1ncc(-c2ccc(-c3ccc(-c4[nH]c([C@@H]5CCCN5C(=O)[C@@H](NC(=O)OC)C(C)C)c5c4CCC5)cc3)cc2)[nH]1 [AG_091] | 1 to 10 | 0.001 to 0.1 | > 1 |  | 
COC(=O)N[C@H](C(=O)N1CCC[C@H]1c1ncc(-c2ccc(-c3ccc(-c4cnc(C5C6CCC(C6)[C@@H]5C(=O)NCc5cccnc5OC)[nH]4)cc3)cc2)[nH]1)[C@@H](C)OC (stereo partly drawn) [AA_257_A] | 1 to 10 | 0.101 to 1 | > 1 |  | 
COC(=O)N[C@H](C(=O)N1CCC[C@H]1c1ccc(-c2ccc(-c3ccc(-c4cnc([C@H](C)NC(=O)[C@@H](NC(=O)OC)[C@@H](C)OC)[nH]4)cc3)cc2)[nH]1)C(C)OC (stereo partly drawn) [AG_112] | 1 to 10 | 0.001 to 0.1 | > 1 |  | 
COC(=O)N[C@H](C(=O)N1CCC[C@H]1c1ncc(-c2ccc(-c3ccc(-c4cnc([C@H]5C6CCC(C6)[C@@H]5C(=O)Nc5ccccc5)[nH]4)cc3)cc2)[nH]1)C(C)C (stereo partly drawn) [AA_237_A] | 10 to 100 | 0.101 to 1 | > 1 |  | 
COC(=O)N[C@H](C(=O)N1CCC[C@H]1c1ncc(-c2ccc(-c3ccc(-c4cnc([C@H]5C6CCC(C6)[C@@H]5C(=O)NCc5cccnc5)[nH]4)cc3)cc2C)[nH]1)C(C)C (stereo partly drawn) [AA_211_A] | 1 to 10 | 0.001 to 0.1 | > 1 |  | 
COC(=O)N[C@H](C(=O)N1CCC[C@H]1c1ncc(-c2ccc(-c3ccc(-c4cnc([C@@H]5C6CCC(C6)[C@H]5C(=O)NCc5nccs5)[nH]4)cc3)cc2)[nH]1)C(C)C (stereo partly drawn) [AA_208_B] | 1 to 10 | 0.001 to 0.1 | > 1 |  | 
COC(=O)N[C@H](C(=O)N1CCC[C@H]1c1ncc(-c2ccc(-c3ccc(-c4cnc([C@H]5C6CCC(C6)[C@@H]5C(=O)NCc5ccc(F)nc5)[nH]4)cc3)cc2)[nH]1)C(C)C (stereo partly drawn) [AA_214_A] | 1 to 10 | 0.001 to 0.1 | > 1 |  | 
COC(=O)N[C@H](C(=O)N1CCC[C@H]1c1ncc(-c2ccc(-c3ccc(-c4cnc([C@@H]5[C@H]6CC[C@H](C6)[C@H]5C(=O)N[C@H](C)c5cnccn5)[nH]4)cc3)cc2)[nH]1)C(C)C [AA_270_ENDOA2_B] | 1 to 10 | 0.001 to 0.1 | > 1 |  | 
COC(=O)N[C@H](C(=O)N1CCC[C@H]1c1ncc(-c2ccc(-c3ccc(-c4cnc(C5[C@H]6CC[C@H](C6)[C@H]5C(=O)NCc5cnccn5)[nH]4)cc3)cc2)[nH]1)C(C)C (stereo partly drawn) [AA_206_ENDOA2] | 0.101 to 1 | 0.001 to 0.1 | > 1 |  | 
COC(=O)N[C@H](C(=O)N1CCC[C@H]1c1ncc(-c2ccc(-c3ccc(-c4cnc([C@@H]5C6CCC(C6)[C@H]5C(=O)NC(C)c5cccnc5)[nH]4)cc3)cc2)[nH]1)C(C)C (stereo partly drawn) [AA_204_B] | 1 to 10 | 0.001 to 0.1 | > 1 |  | 
COC(=O)N[C@H](C(=O)N1CCC[C@H]1c1ncc(-c2ccc(-c3ccc(-c4cnc(C5C6CCC(C6)[C@H]5C(=O)N[C@H](c5cccnc5)C(C)C)[nH]4)cc3)cc2)[nH]1)[C@@H](C)OC (stereo partly drawn) [AA_267_B] |  | 0.101 to 1 | > 1 |  | 1 to 10
COC(=O)N[C@H](C(=O)N1CCC[C@H]1c1ncc(-c2ccc(-c3ccc(-c4cnc(C5C6CCC(C6)[C@@H]5C(=O)NCc5cncnc5)[nH]4)cc3)cc2)[nH]1)[C@@H](C)OC (stereo partly drawn) [AA_249_A] | 0.101 to 1 | 0.001 to 0.1 | > 1 |  | 
COC(=O)NC(C(=O)N1CCCC1c1[nH]c(-c2ccc(-c3ccc(-c4cnc([C@@H]5CCCN5C(=O)[C@@H](NC(=O)OC)C(C)C)[nH]4)cc3)cc2)c2c1CCCC2)C1CCOC1 (stereo partly drawn) [AG_027] | 10 to 100 | 0.101 to 1 | > 10 |  | 
